Results on 7 molecules are retold here after patent US10696674B2, “Spirolactams as inhibitors of ROCK” (BRISTOL-MYERS SQUIBB COMPANY, priority 2016, dated 2020).

Read-outs that look alike come from different tables or passages of the source. Where only a bound is given, the exact number is not on record here.

The test system of assay [1] is ROCK. The following applies: rat, in vivo; cited from earlier work.
In assay [2] the test system is ROCK. Conditions: long term treatment; cited from earlier work.
Assay [3] deals with ROCK. Conditions: rat, in vivo; cited from earlier work. This is another data set of the same source.
For assay [4], the system named is ROCK. The following applies: cited from earlier work.
The test system of assay [5] is ROCK. The following applies: rats, balloon injury model; cited from earlier work.
In the next assay the target is ROCK2 (Homo sapiens, UniProt O75116). Briefly: ROCK2 assay (Caliper LABCHIP peptide phosphorylation). The format is biochemical. Conditions: 5 μM ATP, 1.5 μM peptide substrate. The method, then:
The effectiveness of compounds of the present invention as ROCK inhibitors can be determined in a 30 μL assay containing 20 mM HEPES, pH 7.5, 20 mM MgCl2, 0.015% Brij-35, 4 mM DTT, 5 μM ATP and 1.5 μM peptide substrate (FITC-AHA-AKRRRLSSLRA-OH) (SEQ ID NO.1). Compounds were dissolved in DMSO so that the final concentration of DMSO was <2%, and the reaction was initiated with Rho kinase variants. After incubation, the reaction was terminated by the addition of EDTA and the phosphorylated and non-phosphorylated peptides separated using a LABCHIP® 3000 Reader (Caliper Life Sciences). […] Compounds were tested in dose-response format, and the inhibition of kinase activity was calculated at each concentration of compound. The inhibition data were fit using a curve-fitting program to determine the IC50; i.e., the concentration of compound required to inhibit 50% of kinase activity.
Representative Examples were tested in the ROCK2 assay described above and found having ROCK2 inhibitory activity. The ranges of the ROCK2 IC50 values are as follows: ROCK2 IC50: ++++ (<3 nM) +++ (3-30 nM) ++ (30-300 nM) + (300-2000 nM)

In general, IC50 refers to the concentration at which inhibition is half-maximal. A higher IC50 goes with lower potency.

ROCK2, sequence (O75116 whole entry, species assumed): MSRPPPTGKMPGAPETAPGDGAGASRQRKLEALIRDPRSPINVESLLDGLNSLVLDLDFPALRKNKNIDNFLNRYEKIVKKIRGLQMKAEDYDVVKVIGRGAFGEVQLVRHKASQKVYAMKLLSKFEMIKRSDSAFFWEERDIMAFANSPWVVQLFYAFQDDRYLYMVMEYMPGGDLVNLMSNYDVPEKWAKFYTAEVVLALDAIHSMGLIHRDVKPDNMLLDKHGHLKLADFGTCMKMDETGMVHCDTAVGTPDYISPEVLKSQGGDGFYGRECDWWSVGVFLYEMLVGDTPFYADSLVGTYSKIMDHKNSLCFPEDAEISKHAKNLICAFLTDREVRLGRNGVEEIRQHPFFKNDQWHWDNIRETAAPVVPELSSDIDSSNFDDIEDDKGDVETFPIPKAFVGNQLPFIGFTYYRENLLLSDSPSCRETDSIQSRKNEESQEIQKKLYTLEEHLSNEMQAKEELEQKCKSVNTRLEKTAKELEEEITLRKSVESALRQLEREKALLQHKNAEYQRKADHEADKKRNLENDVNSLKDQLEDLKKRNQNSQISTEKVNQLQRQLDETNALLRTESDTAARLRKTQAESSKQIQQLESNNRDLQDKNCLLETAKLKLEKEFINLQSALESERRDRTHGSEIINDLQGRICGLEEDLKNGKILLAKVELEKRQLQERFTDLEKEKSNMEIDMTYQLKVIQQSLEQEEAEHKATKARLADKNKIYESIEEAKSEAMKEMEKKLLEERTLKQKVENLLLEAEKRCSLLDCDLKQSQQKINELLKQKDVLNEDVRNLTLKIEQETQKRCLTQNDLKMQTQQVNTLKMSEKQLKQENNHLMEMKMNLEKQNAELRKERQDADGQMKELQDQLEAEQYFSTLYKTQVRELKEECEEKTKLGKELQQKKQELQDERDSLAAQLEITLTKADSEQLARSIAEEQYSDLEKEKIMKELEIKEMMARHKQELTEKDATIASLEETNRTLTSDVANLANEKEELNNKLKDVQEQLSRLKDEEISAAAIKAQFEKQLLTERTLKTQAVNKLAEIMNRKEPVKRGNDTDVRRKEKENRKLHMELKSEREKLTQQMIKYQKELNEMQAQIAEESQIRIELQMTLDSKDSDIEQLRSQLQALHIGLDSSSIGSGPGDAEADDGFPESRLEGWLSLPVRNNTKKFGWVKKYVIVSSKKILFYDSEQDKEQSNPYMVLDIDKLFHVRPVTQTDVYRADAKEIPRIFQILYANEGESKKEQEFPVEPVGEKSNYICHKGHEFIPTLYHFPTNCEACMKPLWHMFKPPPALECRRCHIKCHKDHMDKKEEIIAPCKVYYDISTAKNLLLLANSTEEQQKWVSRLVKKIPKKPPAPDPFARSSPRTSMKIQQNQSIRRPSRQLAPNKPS

Regarding `O=S(=O)(c1cccc2cnccc12)N1CCCNCC1` [fasudil], the “infarct size and neurologic deficit” value in the assay with ROCK [1] was “reduce both the infarct size and neurologic deficit”. In addition, in the assay on ROCK [2], the coronary constrictive remodeling result is on record as “promote a regression of coronary constrictive remodeling” and the coronary stenosis result is on record as “progressively reduce coronary stenosis”.
For the molecule `C[C@@H](N)[C@H]1CC[C@H](C(=O)Nc2ccncc2)CC1` [Example Y-27632, Y-27632], the “ventricular hypertrophy, fibrosis and function” value in the assay with ROCK [3] is “improve ventricular hypertrophy, fibrosis and function”. Moreover, the blood pressure entry is given as “only a minor effect on blood pressure” with ROCK [4] (control rats); “significantly decrease blood pressure” in the assay on ROCK [4] (spontaneously hypertensive rat, renal hypertensive rat and deoxycortisone acetate salt hypertensive rat models). Also, the neointimal formation entry with ROCK [5] is on record as “inhibited neointimal formation”.
`O=C1N(c2ccc(-c3cn[nH]c3)cc2)CCC12Cc1ccc(OCC3CC3)cc1N2` (single isomer, unassigned) [Example 43, 1′-(4-(1H-Pyrazol-4-yl)phenyl)-6-(cyclopropylmethoxy)spiro[indoline-2,3′-pyrrolidin]-2′-one] returned an IC50 at ROCK2 of 0.03 to 0.3 µM.
The same measure, in the same setting: for `O=C1N(c2ccc(-c3cn[nH]c3)cc2)CCC12Cc1ccc(F)cc1C2` (single isomer, unassigned) [Example 16, 1′-(4-(1H-Pyrazol-4-yl)phenyl)-5-fluoro-1,3-dihydrospiro[indene-2,3′-pyrrolidin]-2′-one] the value was 0.003 to 0.03 µM; for `O=C1N(c2ccc(-c3cn[nH]c3)cc2)CCC12Cc1ccccc1O2` (racemic) [Example 29, 1′-(4-(1H-Pyrazol-4-yl)phenyl)-3H-spiro[benzofuran-2,3′-pyrrolidin]-2′-one], less than 0.003 µM.
On the same count and under the same terms, as for `COc1ccc2c(c1)NC1(CCN(c3ccc(-c4cn[nH]c4)cc3)C1=O)C2` (stereo not drawn) [Example 4, 1′-(4-(1H-Pyrazol-4-yl)phenyl)-6-methoxyspiro[indoline-2,3′-pyrrolidin]-2′-one], the figure is less than 0.003 µM; as for `COc1cc(N2CCC3(Cc4ccccc4C3)C2=O)ccc1-c1cn[nH]c1` [Example 35, 1′-(3-Methoxy-4-(1H-pyrazol-4-yl)phenyl)-1,3-dihydrospiro[indene-2,3′-pyrrolidin]-2′-one], 0.003 to 0.03 µM.
